Source: patent US8003630B2, “Combinatorial therapies for the treatment of neoplasias using the opioid growth factor receptor” (The Penn State Research Foundation, priority 2004, dated 2011)
Marks after values point to notes of the source that are not given here.

Experiments:
MIA PaCa-2 cells [1] = test: Growth assays of MIA PaCa-2 cells (MTS assay or cell counting), Example 7; type: cell-based, human; conditions: for inhibition of cell number relative to controls: opioids 10^−6 M daily; for decrease in cell number relative to controls: OGF 10^−6 M and/or gemcitabine 10^−8 M
Procedure: (§1) MIA PaCa-2 and PANC-1 human pancreatic adenocarcinoma cell lines were purchased from the American Type Culture Collection (Manasass, Va.). MIA PaCa-2 cells were derived from an undifferentiated epithelial carcinoma occurring in the body and tail of the pancreas in a person. The PANC-1 cells were derived from an undifferentiated carcinoma from the head of the pancreas in a person. MIA PaCa-2 and PANC-1 cells were grown in Dulbecco's MEM (modified) media; media was supplemented with 10% fetal calf serum, 1.2% sodium bicarbonate, and antibiotics (5,000 Units/ml penicillin, 5 mg/ml streptomycin, 10 mg/ml neomycin), and the cells were maintained in a humidified atmosphere of 7% CO2/93% air at 37° C.
MIA PaCa-2 cells were seeded at equivalent amounts into either 75 cm^2 flasks, 6-well plates, or 96-well plates (Falcon) and counted 24 hr later to determine plating efficiency. Growth assays for PANC-1 cells were conducted in 6-well plates (Falcon). Compounds or sterile water were added beginning 24 hr after seeding (=0 hr), and both media and compounds were replaced daily. All drugs were prepared in sterile water and dilutions represent final concentrations of the compounds.
(§2) Cell number was recorded either by using a mitogenic bioassay, the MTS assay (Cell Titer 96 One Solution, Promega, Madison, Wis.), and measuring absorbency after 4 hr on a Biorad (Model 3550) plate reader at 490 nm, or by counting cells. For manual counts, cells were harvested with a solution of 0.25% trypsin/0.53 mM EDTA, centrif uiged, and counted with a hemacytometer. Cell viability was determined by trypan blue staining. At least two aliquots per flask or 4-10 wells/treatment were counted at each time.

SCC-1 cells [2] = test: Cell proliferation assays of SCC-1 cells (MTS or cell counting), Example 8; type: cell-based, human; conditions: for decrease from control levels in absorbency readings: opioids 10^−6 M daily; for reduction of cell number from control levels: SCC-1, MTS, carboplatin 10^−7 M
Procedure: The UM-SCC-1 cell line (SCC-1) was derived from a well-differentiated recurrent squamous cell carcinoma in the floor of the mouth of a person (25). This cell line was obtained from The University of Michigan, Cancer Research Laboratory (Thomas E. Carey, Ph.D., Director). CAL-27 human squamous cell carcinoma cell line, derived from a poorly differentiated carcinoma of the tongue in a person ([…]), was obtained from the American Type Culture Collection (Manassas, Va.). Both cell lines were grown in Dulbecco's MEM (modified) media supplemented with 10% fetal calf serum, 1.2% sodium bicarbonate, and antibiotics (5,000 Units/ml penicillin, 5 mg/ml streptomycin, 10 mg/ml neomycin). The cell cultures were maintained in a humidified atmosphere of 7% CO2/93% air at 37° C.
Cells were seeded at equivalent amounts into either 6-well or 96-well plates (Falcon) and counted 24 hr later to determine plating efficiency.
The dosage of carboplatin selected was based on previous reports (27, 28), as well as preliminary studies in our laboratory.
Cell number was recorded either by using the MTS proliferation bioassay (Cell Titer 96 One Solution, Promega, Madison, Wis.) and measuring absorbency after 4 hr on a Biorad (Model 3550) plate reader at 490 nm with a 750 nm background absorbance screening, or by directly counting cells. The MTS assay utilized 10 wells/treatment. For manual counts, cells were harvested by trypsinization with 0.25% trypsin/0.53 mM EDTA, centrif uiged, and counted with a hemacytometer. Cell viability was determined by trypan blue staining. At least two aliquots per well, and 4-10 wells/treatment, were counted at each time for manual counting.
For some experiments, the rate of growth over a 96-hr period of time was calculated using linear regression analyses. The slopes of the lines (number of cells/hr) were compared by analysis of variance. All calculations were performed with GraphPad Prism software.

SCC-1 cells [3] = test: Growth curves of SCC-1 cells, cell proliferation (MTT) assay, absorbency
Source text: Cells were counted using a standard MTT assay. In general, each data point represents the average absorbency taken from 10 wells/treatment; error bars represent the S.E.M.

MiaPaCa-2 cells [4] = test: Gemcitabine growth curve, actual cell counts; type: cell-based, human; conditions: MiaPaCa-2 cell counts
MiaPaCa-2 cells [5] = test: Gemcitabine and OGF cell cycle phase analysis by flow cytometry; type: cell-based, human
Procedure: To investigate the exact cell cycle phase where gemcitabine and/or OGF exerted their effects, flow cytometry was performed.

MIA PaCa-2 cells [6] = test: MIA PaCa-2 xenograft in nude mice, tumor appearance, growth and termination day measurements (Example 7); type: in vivo, BALB/c-nu/nu nude mice
Source text: Male 4 week old BALB/c-nu/nu nude mice purchased from Harlan Laboratories (Indianapolis, Ind.) were housed in pathogen-free isolators in the Department of Comparative Medicine at the Penn State University College of Medicine. All procedures were approved by the IACUC committee of the Penn State University College of Medicine and conformed to the guidelines established by NIH. Mice were allowed 48 hr to acclimate prior to beginning experimentation.
MIA PaCa-2 cells (10^6 cells/mouse) were inoculated into nude mice by subcutaneous injection into the right scapular region; mice were not anesthetized for this procedure.
All drugs were dissolved in saline and prepared weekly. Injections were given within 1 hr of tumor cell inoculation.
Mice were weighed weekly throughout the experiment, and observed daily for the presence of tumors. The latency for a visible tumor to appear, and the time until tumors were measurable (i.e., 62.5 mm^3) were recorded. Tumors were measured using calipers every day after tumor appearance. Tumor volume was calculated using the formula w^2×1×π/6, where the length is the longest dimension, and width is the dimension perpendicular to length.
According to IACUC guidelines, mice were terminated when tumors became ulcerated, or tumors grew to 2 cm in diameter. Forty-five days following tumor cell inoculation, all mice were euthanized by an overdose of sodium pentobarbital (100 mg/kg) and killed by cervical dislocation; mice (with tumors) were weighed. Tumors and spleens were removed and weighed, and the lymph nodes, liver, and spleen examined for metastases.

PANC-1 cells = test: Growth assay of PANC-1 cells in 6-well plates; type: cell-based, human; conditions: 72 hr, OGF 10^−6 M and/or gemcitabine 10^−8 M
Procedure: as §1
MIA PaCa-2 cells were seeded at equivalent amounts into either 75 cm^2 flasks, 6-well plates, or 96-well plates (Falcon) and counted 24 hr later to determine plating efficiency. […]
as §2

MiaPaCa-2 cells [7] = test: OGF/gemcitabine treatment in athymic nude mouse model (Example 5); type: in vivo, athymic nude mice; conditions: day 16 after tumor cell inoculation
Source text: To examine the effectiveness of the combined OGF/gemcitabine treatments in vivo, an athymic nude mouse model was used.

dynorphin A1-8 (YGGFLRRI; Dynorphin A(1-8); UniProt P01213 207-214, looked up, fragment)
inhibition of cell number relative to controls (MIA PaCa-2 cells [1]; MIA PaCa-2, 96 hr): none of the other drugs utilized had any inhibitory or stimulatory effect on growth

C=CCN1CC[C@]23c4c5ccc(O)c4O[C@H]2C(=O)CC[C@@]3(O)[C@H]1C5 [naloxone]
effect of naloxone on growth and growth inhibition (SCC-1 cells [2]; SCC-1, naloxone 10^−6 M): had no effect on growth
effect of naloxone on growth and growth inhibition (MIA PaCa-2 cells [1]; MIA PaCa-2, 96 hr, naloxone 10^−6 M): had no effect on the growth of MIA PaCa-2 cells

β-endorphin (YGGFMTSEKSQTPLVTLFKNAIIKNAYKKGE; Beta-endorphin; UniProt P01189 237-267, looked up)
decrease from control levels in absorbency readings (SCC-1 cells [2]; SCC-1): none of the drugs utilized had any inhibitory or stimulatory effect on growth
inhibition of cell number relative to controls (MIA PaCa-2 cells [1]; MIA PaCa-2, 96 hr): none of the other drugs utilized had any inhibitory or stimulatory effect on growth

[D-Pen^2,5]-enkephalin [DPDPE]
decrease from control levels in absorbency readings (SCC-1 cells [2]; SCC-1): none of the drugs utilized had any inhibitory or stimulatory effect on growth
inhibition of cell number relative to controls (MIA PaCa-2 cells [1]; MIA PaCa-2, 96 hr): none of the other drugs utilized had any inhibitory or stimulatory effect on growth

CC(C)C[C@@H](NC(=O)[C@H](Cc1ccccc1)NC(=O)CNC(=O)[C@@H](C)NC(=O)[C@@H](N)Cc1ccc(O)cc1)C(=O)O [DADLE, [D-Ala-D-Leu-enkephalin]]
decrease from control levels in absorbency readings (SCC-1 cells [2]; SCC-1): none of the drugs utilized had any inhibitory or stimulatory effect on growth
inhibition of cell number relative to controls (MIA PaCa-2 cells [1]; MIA PaCa-2, 96 hr): none of the other drugs utilized had any inhibitory or stimulatory effect on growth

endomorphin-2
decrease from control levels in absorbency readings (SCC-1 cells [2]; SCC-1): none of the drugs utilized had any inhibitory or stimulatory effect on growth
inhibition of cell number relative to controls (MIA PaCa-2 cells [1]; MIA PaCa-2, 96 hr): none of the other drugs utilized had any inhibitory or stimulatory effect on growth

dynorphin 1-13 (YGGFLRRIRPKLK; Dynorphin A(1-13); UniProt P01213 207-219, looked up, fragment)
decrease from control levels in absorbency readings (SCC-1 cells [2]; SCC-1): none of the drugs utilized had any inhibitory or stimulatory effect on growth

N.N.O=C([O-])C1(C(=O)[O-])CCC1.[Pt+2] [carboplatin]
decrease in cell number relative to controls (SCC-1 cells [3]; 48 h, carboplatin 10^−6 M and/or OGF 10^−6 M): 5.3%
decrease in cell number relative to controls (SCC-1 cells [3]; 72 h, carboplatin 10^−6 M and/or OGF 10^−6 M): 21.8%
decrease in cell number relative to controls (SCC-1 cells [3]; 72 h, carboplatin 10^−7 M alone or with OGF 10^−6 M): 18.7%
decrease in cell number relative to controls (SCC-1 cells [3]; 96 h, carboplatin 10^−6 M and/or OGF 10^−6 M): 24.9%
decrease in cell number relative to controls (SCC-1 cells [3]; 96 h, carboplatin 10^−7 M alone or with OGF 10^−6 M): 21%
reduction of cell number from control levels (SCC-1 cells [2]; 72 hr): 19%
reduction of cell number from control levels (SCC-1 cells [2]; 96 hr): 21%

Nc1ccn([C@@H]2O[C@H](CO)[C@@H](O)C2(F)F)c(=O)n1 [gemcitabine]
inhibition at 0.01 µM (MIA PaCa-2 cells [1]; Homo sapiens, MIA PaCa-2, 96 h, read-out: inhibition of cell growth relative to control levels): 13 to 36%
decrease in cell number relative to controls (MIA PaCa-2 cells [1]; MIA PaCa-2, 48 hr): 22%
decrease in cell number relative to controls (MIA PaCa-2 cells [1]; MIA PaCa-2, 72 hr): 21%
difference in cell number between reversal group and group continuing drug exposure (MIA PaCa-2 cells [1]; MIA PaCa-2, 96 hr (48 hr after reversal)): did not differ
decrease in cell number relative to controls (MIA PaCa-2 cells [1]; MIA PaCa-2, 96 hr): 32%
decrease in cell number relative to controls (MiaPaCa-2 cells [4]; 24 h, gemcitabine 10^−7 M or OGF 10^−6 M alone): 30.1%
decrease in cell number relative to controls (MiaPaCa-2 cells [4]; 48 h, gemcitabine 10^−7 M or OGF 10^−6 M alone): 46.4%
decrease in cell number relative to controls (MiaPaCa-2 cells [4]; 48 h, gemcitabine 10^−8 M alone or with OGF 10^−6 M): 21.7%
decrease in cell number relative to controls (MiaPaCa-2 cells [4]; 72 h, gemcitabine 10^−7 M or OGF 10^−6 M alone): 47.7%
decrease in cell number relative to controls (MiaPaCa-2 cells [4]; 72 h, gemcitabine 10^−8 M alone or with OGF 10^−6 M): 21.2%
decrease in cell number relative to controls (MiaPaCa-2 cells [4]; 96 h, gemcitabine 10^−7 M or OGF 10^−6 M alone): 64.2%
decrease in cell number relative to controls (MiaPaCa-2 cells [4]; 96 h, gemcitabine 10^−8 M alone or with OGF 10^−6 M): 32.4%
cells in the G1 phase of the cell cycle (MiaPaCa-2 cells [5]; 48 hours of treatment): 73.50%
cells in the G1 phase of the cell cycle (MiaPaCa-2 cells [5]; 120 hours of treatment): 60.75%
day from which tumor volume differed from controls (MIA PaCa-2 cells [6]; at least p<0.05): 14 days
mice with measurable tumors (MIA PaCa-2 cells [6]; day 10): 75%
tumor volumes decreased from control values (MIA PaCa-2 cells [6]; day 45): 56%
weight of the spleen decreased from control values (MIA PaCa-2 cells [6]; day 45): approximately 40%
Body Weight (MIA PaCa-2 cells [6]; day 45, means ± SEM): 27.4 ± 0.55 g
Spleen Weight (MIA PaCa-2 cells [6]; day 45, means ± SEM): 454 ± 49 mg
Tumor Volume, mm^3 (MIA PaCa-2 cells [6]; day 45, means ± SEM): 3963 ± 123*** mm^3
Tumor Weight (MIA PaCa-2 cells [6]; day 45, means ± SEM): 2.4 ± 0.1 g
Latency to measurable tumor (MIA PaCa-2 cells [6]; means ± SEM): 13.1 ± 1.0 days
Latency to visible tumor (MIA PaCa-2 cells [6]; means ± SEM): 11.1 ± 1.1 days
Tumor Incidence, day 16 (MIA PaCa-2 cells [6]; mice with tumor/N): 11/12
Tumor Incidence, day 10 (MIA PaCa-2 cells [6]; mice with tumor/N, OGF 10 mg/kg daily and/or gemcitabine 120 mg/kg every 3 days i.p.): 9/12
weights of tumors decreased from control levels (MIA PaCa-2 cells [6]; termination day (day 45)): 56%
fewer cells than in control cultures (PANC-1 cells): 31%
mice with tumors (MiaPaCa-2 cells [7]): 75%

CN1CC[C@]23c4c5ccc(O)c4O[C@H]2[C@@H](O)C=C[C@H]3[C@H]1C5 [morphine]
decrease from control levels in absorbency readings (SCC-1 cells [2]; SCC-1): none of the drugs utilized had any inhibitory or stimulatory effect on growth
inhibition of cell number relative to controls (MIA PaCa-2 cells [1]; MIA PaCa-2, 96 hr): none of the other drugs utilized had any inhibitory or stimulatory effect on growth

C[C@@H](NC(=O)[C@@H](N)Cc1ccc(O)cc1)C(=O)NCC(=O)N(C)[C@@H](Cc1ccccc1)C(=O)NCCO [DAMGO, [D-Ala^2, MePhe^4, Glyol^5]-enkephalin]
decrease from control levels in absorbency readings (SCC-1 cells [2]; SCC-1): none of the drugs utilized had any inhibitory or stimulatory effect on growth
inhibition of cell number relative to controls (MIA PaCa-2 cells [1]; MIA PaCa-2, 96 hr): none of the other drugs utilized had any inhibitory or stimulatory effect on growth

endomorphin-1
decrease from control levels in absorbency readings (SCC-1 cells [2]; SCC-1): none of the drugs utilized had any inhibitory or stimulatory effect on growth
inhibition of cell number relative to controls (MIA PaCa-2 cells [1]; MIA PaCa-2, 96 hr): none of the other drugs utilized had any inhibitory or stimulatory effect on growth
